Laboratory results published in PMC6440464 (PeerJ, 2019).
“And” between values parts separate entries of the source, which are not always exact repeats. Equal values may be shown once.

Assay: Stability of the analytes in rat plasma QC samples at different storage conditions
Type: in vitro ADME
Settings: for Post-preparation stability (4℃ for 24 h) Measured Conc.: extracted plasma samples in auto sampler rack; for Post-preparation stability (4℃ for 24 h) Measured Conc. / Free-thaw stability (3 free-thaw cycles) Measured Conc. / Long-term stability (-80℃ for 15 d) Measured Conc. / Short-term stability (25℃ for 12 h) Measured Conc.: n=5; for Free-thaw stability, Test Conc., AV / Free-thaw stability, Test Conc. / Post-preparation stability, Test Conc., AV / Post-preparation stability, Test Conc. / Short-term stability, Test Conc., AV / Short-term stability, Test Conc. / Long-term stability, Test Conc., AV / Long-term stability, Test Conc.: plasma; for Free-thaw stability, Test Conc., AV / Free-thaw stability, Test Conc.: 3 free-thaw cycles; for Free-thaw stability, Test Conc., AV / Post-preparation stability, Test Conc., AV / Short-term stability, Test Conc., AV / Long-term stability, Test Conc., AV: AV of 5 replicates; for Free-thaw stability, Test Conc. / Post-preparation stability, Test Conc. / Short-term stability, Test Conc. / Long-term stability, Test Conc.: single replicates NO.1-NO.5, listed as Quercetin (Qr); for Post-preparation stability, Test Conc., AV / Post-preparation stability, Test Conc.: 4℃ for 24 h; for Short-term stability, Test Conc., AV / Short-term stability, Test Conc.: 25℃ for 12 h; for Long-term stability, Test Conc., AV / Long-term stability, Test Conc.: -80℃ for 15 d; for Free-thaw stability (3 free-thaw cycles) Measured Conc. / Long-term stability (-80℃ for 15 d) Measured Conc. / Short-term stability (25℃ for 12 h) Measured Conc.: rat plasma
Procedure: The stabilities of Qr, IQ, and QG in plasma were assessed by analyzing QC samples at different storage conditions. The stabilities of three flavonoids in plasma were studied by analyzing three concentration levels of QC samples (n = 5) at room temperature (25 °C) for 12 h, at long-term storage (−80 °C for 15 days), after three freeze (−80 °C) and thaw (room temperature) cycles, and at auto sampler rack storage (4 °C for 24 h).

[1] = high QC, nominal 8400.0 (Qr), 976.0 (IQ), 10000.0 (QG) ng/mL
[2] = low QC, nominal 65.6 (Qr), 48.8 (IQ), 100.0 (QG) ng/mL
[3] = medium QC, nominal 525.0 (Qr), 244.0 (IQ), 1000.0 (QG) ng/mL

O=c1c(O)c(-c2ccc(O)c(O)c2)oc2cc(O)cc(O)c12 [Qr, Quercetin]
Post-preparation stability (4℃ for 24 h) Measured Conc. [1]: 7642.7 ± 675.6 ng/mL | Post-preparation stability (4℃ for 24 h) Measured Conc. [2]: 61.0 ± 4.5 ng/mL | Post-preparation stability (4℃ for 24 h) Measured Conc.: 526.3 ± 60.5 ng/mL | Free-thaw stability, Test Conc., AV (nominal Conc. 65.63 ng/mL): 65.26 ng/mL | Free-thaw stability, Test Conc. (nominal Conc. 65.63 ng/mL): 66.42 ng/mL and 58.78 ng/mL and 57.77 ng/mL and 73.55 ng/mL and 69.78 ng/mL | Free-thaw stability, Test Conc., AV (nominal Conc. 525.00 ng/mL): 511.91 ng/mL | Free-thaw stability, Test Conc. (nominal Conc. 525.00 ng/mL): 492.92 ng/mL and 484.10 ng/mL and 471.66 ng/mL and 550.36 ng/mL and 560.49 ng/mL | Free-thaw stability, Test Conc., AV (nominal Conc. 8400.00 ng/mL): 8631.34 ng/mL | Free-thaw stability, Test Conc. (nominal Conc. 8400.00 ng/mL): 7999.32 ng/mL and 7943.88 ng/mL and 8238.72 ng/mL and 9682.68 ng/mL and 9292.08 ng/mL | Post-preparation stability, Test Conc., AV (nominal Conc. 65.63 ng/mL): 61.04 ng/mL | Post-preparation stability, Test Conc. (nominal Conc. 65.63 ng/mL): 58.85 ng/mL and 54.07 ng/mL and 64.70 ng/mL and 64.32 ng/mL and 63.25 ng/mL | Post-preparation stability, Test Conc., AV (nominal Conc. 525.00 ng/mL): 526.26 ng/mL | Post-preparation stability, Test Conc. (nominal Conc. 525.00 ng/mL): 568.94 ng/mL and 459.48 ng/mL and 463.10 ng/mL and 552.93 ng/mL and 586.85 ng/mL | Post-preparation stability, Test Conc., AV (nominal Conc. 8400.00 ng/mL): 7642.66 ng/mL | Post-preparation stability, Test Conc. (nominal Conc. 8400.00 ng/mL): 6882.12 ng/mL and 7943.04 ng/mL and 7529.76 ng/mL and 8629.32 ng/mL and 7229.04 ng/mL | Short-term stability, Test Conc., AV (nominal Conc. 65.63 ng/mL): 60.80 ng/mL | Short-term stability, Test Conc. (nominal Conc. 65.63 ng/mL): 57.16 ng/mL and 57.07 ng/mL and 64.40 ng/mL and 62.26 ng/mL and 63.12 ng/mL | Short-term stability, Test Conc., AV (nominal Conc. 525.00 ng/mL): 474.02 ng/mL | Short-term stability, Test Conc. (nominal Conc. 525.00 ng/mL): 478.01 ng/mL and 472.87 ng/mL and 443.05 ng/mL and 442.10 ng/mL and 534.08 ng/mL | Short-term stability, Test Conc., AV (nominal Conc. 8400.00 ng/mL): 7949.42 ng/mL | Short-term stability, Test Conc. (nominal Conc. 8400.00 ng/mL): 8294.16 ng/mL and 7882.56 ng/mL and 8019.48 ng/mL and 7925.40 ng/mL and 7625.52 ng/mL | Long-term stability, Test Conc., AV (nominal Conc. 65.63 ng/mL): 59.99 ng/mL | Long-term stability, Test Conc. (nominal Conc. 65.63 ng/mL): 54.24 ng/mL and 60.01 ng/mL and 62.03 ng/mL and 66.54 ng/mL and 57.14 ng/mL | Long-term stability, Test Conc., AV (nominal Conc. 525.00 ng/mL): 500.71 ng/mL | Long-term stability, Test Conc. (nominal Conc. 525.00 ng/mL): 493.55 ng/mL and 501.01 ng/mL and 547.68 ng/mL and 448.04 ng/mL and 513.29 ng/mL | Long-term stability, Test Conc., AV (nominal Conc. 8400.00 ng/mL): 7982.86 ng/mL | Long-term stability, Test Conc. (nominal Conc. 8400.00 ng/mL): 7842.24 ng/mL and 9005.64 ng/mL and 8321.88 ng/mL and 7922.88 ng/mL and 6821.64 ng/mL | Free-thaw stability (3 free-thaw cycles) Measured Conc. [1]: 8631.3 ± 801.3 ng/mL | Long-term stability (-80℃ for 15 d) Measured Conc. [1]: 7982.9 ± 795.7 ng/mL | Short-term stability (25℃ for 12 h) Measured Conc. [1]: 7949.4 ± 241.7 ng/mL | Free-thaw stability (3 free-thaw cycles) Measured Conc. [2]: 65.3 ± 6.9 ng/mL | Long-term stability (-80℃ for 15 d) Measured Conc. [2]: 60.0 ± 4.7 ng/mL | Short-term stability (25℃ for 12 h) Measured Conc. [2]: 60.8 ± 3.5 ng/mL | Free-thaw stability (3 free-thaw cycles) Measured Conc. [3]: 511.9 ± 40.6 ng/mL | Long-term stability (-80℃ for 15 d) Measured Conc. [3]: 500.7 ± 36.0 ng/mL | Short-term stability (25℃ for 12 h) Measured Conc. [3]: 474.0 ± 37.4 ng/mL
